Test results as given in patent US4698352A, “4-oxo-1,4-dihydronicotinic acid derivatives, salts thereof, and antibacterial agents containing the same” (Toyama Chemical Co., Ltd., priority 1982, dated 1987).
In brackets after ≈: the same amount, converted by molar mass. Like-named read-outs stand apart in the source and are kept apart here.

Legend:
Test in all cases: Antibacterial activity (MIC), agar dilution
Type in all cases: cell-based
E. coli NIHJ JC-2 = details: Escherichia coli, NIHJJC2, 20 h, E. coli NIHJ JC-2; 10^6 cells per ml; 37° C., 20 hours; read-out: MIC
Text: (§1) The amount of bacteria inoculated was 10^4 cells per plate (10^6 cells per ml).

E. coli TK-111 = details: Escherichia coli, TK111, 20 h, E. coli TK-111; 10^6 cells per ml; 37° C., 20 hours; read-out: MIC
Text: as §1

Ent. cloacae IID977 = details: Enterobacter cloacae, IID977, 20 h, Ent. cloacae IID977; 10^6 cells per ml; 37° C., 20 hours; read-out: MIC
Text: as §1

Kl. pneumoniae Y-41 = details: Klebsiella pneumoniae, Y41, 10^6 cells per ml, 37° C., 20 hours, read-out: MIC
Text: as §1

Kl. pneumoniae Y-50 = details: Klebsiella pneumoniae, Y50, 20 h, 10^6 cells per ml, 37° C., read-out: MIC
Text: as §1

Pro. mirabilis T-111 = details: Proteus mirabilis, 37° C.
Text: as §1

Pro. morganii T-216 = details: Morganella morganii, 37° C.
Text: as §1

Pro. vulgaris GN3027 = details: Proteus vulgaris, GN3027, 20 h, Pro. vulgaris GN3027; 10^6 cells per ml; 37° C., 20 hours; read-out: MIC
Text: as §1

Ps. aeruginosa IFO3445 = details: Pseudomonas aeruginosa; Ps. aeruginosa IFO3445; 10^6 cells per ml; 37° C., 20 hours; read-out: MIC
Text: as §1

Ps. aeruginosa S-68 = details: Pseudomonas aeruginosa
Text: as §1

St. aureus FDA209P = details: Staphylococcus aureus, FDA209P, 20 h
Text: as §1

E. coli TK-3* = details: Escherichia coli, 20 h, E. coli TK-3, penicillinase-producing; 10^6 cells per ml; read-out: MIC
Text: as §1
(§2) * Penicillinase-producing bacteria

Kl. pneumoniae Y-4* = details: Klebsiella pneumoniae, 20 h, Kl. pneumoniae Y-4, penicillinase-producing; 10^6 cells per ml; read-out: MIC
Text: as §1, §2

Ps. aeruginosa GN3379* = details: Pseudomonas aeruginosa, Ps. aeruginosa GN3379, penicillinase-producing, 10^6 cells per ml
Text: as §1, §2

St. aureus F-137* = details: Staphylococcus aureus, 20 h
Text: as §1, §2

E. coli GN5482** = details: Escherichia coli, 20 h; E. coli GN5482, cephalospolinase-producing; 10^6 cells per ml; read-out: MIC
Text: as §1
(§3) ** Cephalospolinase-producing bacteria

Pro. vulgaris GN76** = details: Proteus vulgaris
Text: as §1, §3

Ps. aeruginosa GN918** = details: Pseudomonas aeruginosa, Ps. aeruginosa GN918, cephalospolinase-producing, 10^6 cells per ml
Text: as §1, §3

Aci. antitratus A-6 = details: 20 h, Aci. antitratus A-6; 10^6 cells per ml; 37° C., 20 hours; read-out: MIC
Text: as §1

[1] = T111, 10^6 cells per ml, 20 hours, read-out: MIC
[2] = T216, 10^6 cells per ml, 20 hours, read-out: MIC
[3] = S68, Ps. aeruginosa S-68, 10^6 cells per ml, 37° C., 20 hours, read-out: MIC
[4] = 20 h, Pro. vulgaris GN76, cephalospolinase-producing, 10^6 cells per ml, read-out: MIC
[5] = St. aureus FDA209P, 10^6 cells per ml, 37° C., 20 hours, read-out: MIC
[6] = St. aureus F-137, penicillinase-producing, 10^6 cells per ml, read-out: MIC

| Compound | MIC (E. coli NIHJ JC-2) [µg/mL] | MIC (E. coli TK-111) [µg/mL] | MIC (Ent. cloacae IID977) [µg/mL] | MIC (Kl. pneumoniae Y-41) [µg/mL] | MIC (Kl. pneumoniae Y-50) [µg/mL] | MIC (Pro. mirabilis T-111; [1]) [µg/mL] | MIC (Pro. morganii T-216; [2]) [µg/mL] | MIC (Pro. vulgaris GN3027) [µg/mL] | MIC (Ps. aeruginosa IFO3445) [µg/mL] | MIC (Ps. aeruginosa S-68; [3]) [µg/mL] | MIC (E. coli TK-3*) [µg/mL] | MIC (Kl. pneumoniae Y-4*) [µg/mL] | MIC (Ps. aeruginosa GN3379*; 20 h, read-out: MIC) [µg/mL] | MIC (E. coli GN5482**) [µg/mL] | MIC (Pro. vulgaris GN76**; [4]) [µg/mL] | MIC (Ps. aeruginosa GN918**; 20 h, read-out: MIC) [µg/mL] | MIC (Aci. antitratus A-6) [µg/mL] | MIC (St. aureus FDA209P; [5]) [µg/mL] | MIC (St. aureus F-137*; [6]) [µg/mL] | MIC (Pro. mirabilis T-111; T111, 20 h, 10^6 cells per ml) [µg/mL] | other results |
| --- | --- | --- | --- | --- | --- | --- | --- | --- | --- | --- | --- | --- | --- | --- | --- | --- | --- | --- | --- | --- | --- |
| Cc1cc(F)ccc1-n1cc(C(=O)O)c(=O)cc1C1CC=CCC1 (stereo not drawn) | 6.25 (≈ 19.1 µM) | 1.56 (≈ 4.77 µM) | 12.5 (≈ 38.2 µM) | 25 (≈ 76.4 µM) | 3.13 (≈ 9.56 µM) | 25 (≈ 76.4 µM) | 12.5 (≈ 38.2 µM) | 0.39 (≈ 1.19 µM) | 100 (≈ 305 µM) | 50 (≈ 153 µM) | 12.5 (≈ 38.2 µM) | 25 (≈ 76.4 µM) | 100 (≈ 305 µM) | 0.78 (≈ 2.38 µM) | 6.25 (≈ 19.1 µM) | 12.5 (≈ 38.2 µM) |  |  |  |  | MIC (St. aureus FDA209P): 3.13 µg/mL (≈ 9.56 µM); MIC (St. aureus F-137*): 3.13 µg/mL (≈ 9.56 µM) |
| O=C(O)c1cn(-c2ccc(O)cc2F)c(-c2ccc(N3CCCC3)cc2)cc1=O | 0.2 (≈ 0.507 µM) | ≤ 0.05 | 0.78 (≈ 1.98 µM) | 1.56 (≈ 3.96 µM) | 0.39 (≈ 0.989 µM) | 0.78 (≈ 1.98 µM) | 0.78 (≈ 1.98 µM) | 0.2 (≈ 0.507 µM) | 6.25 (≈ 15.8 µM) |  |  | 3.13 (≈ 7.94 µM) |  | ≤ 0.05 | 0.78 (≈ 1.98 µM) | 0.78 (≈ 1.98 µM) | ≤ 0.05 | ≤ 0.05 | ≤ 0.05 |  | MIC (Ps. aeruginosa S-68; S68, 20 h): 3.13 µg/mL (≈ 7.94 µM); MIC (Ps. aeruginosa GN3379*; GN3379, 20 h): 3.13 µg/mL (≈ 7.94 µM) |
| Cc1nc2ccc(-c3cc(=O)c(C(=O)O)cn3-c3ccc(O)cc3)cc2s1 | 0.39 (≈ 1.03 µM) | 0.2 (≈ 0.529 µM) | 1.56 (≈ 4.12 µM) | 3.13 (≈ 8.27 µM) | 0.39 (≈ 1.03 µM) |  |  | 0.39 (≈ 1.03 µM) | 25 (≈ 66.1 µM) | 12.5 (≈ 33 µM) | 0.78 (≈ 2.06 µM) | 3.13 (≈ 8.27 µM) | 12.5 (≈ 33 µM) | ≤ 0.05 | 0.78 (≈ 2.06 µM) | 1.56 (≈ 4.12 µM) |  | 0.39 (≈ 1.03 µM) | 0.39 (≈ 1.03 µM) | 3.13 (≈ 8.27 µM) | MIC (Pro. morganii T-216; T216, 20 h, 10^6 cells per ml): 3.13 µg/mL (≈ 8.27 µM) |
| Cc1nc2cc(-c3cc(=O)c(C(=O)O)cn3-c3ccc(O)cc3)ccc2s1 | 0.39 (≈ 1.03 µM) | 0.1 (≈ 0.264 µM) | 1.56 (≈ 4.12 µM) | 3.13 (≈ 8.27 µM) | 0.78 (≈ 2.06 µM) |  |  | 0.39 (≈ 1.03 µM) | 12.5 (≈ 33 µM) | 6.25 (≈ 16.5 µM) | 0.78 (≈ 2.06 µM) | 3.13 (≈ 8.27 µM) | 6.25 (≈ 16.5 µM) | ≤ 0.05 | 1.56 (≈ 4.12 µM) | 1.56 (≈ 4.12 µM) |  | 0.39 (≈ 1.03 µM) | 0.78 (≈ 2.06 µM) | 3.13 (≈ 8.27 µM) | MIC (Pro. morganii T-216; T216, 20 h, 10^6 cells per ml): 3.13 µg/mL (≈ 8.27 µM) |
| COCOC(=O)c1cn(-c2ccc(O)cc2)c(-c2ccc(N(C)C)cc2)cc1=O | 0.39 (≈ 0.989 µM) | 0.2 (≈ 0.507 µM) | 1.56 (≈ 3.96 µM) | 3.13 (≈ 7.94 µM) | 0.78 (≈ 1.98 µM) |  | 1.56 (≈ 3.96 µM) | 0.39 (≈ 0.989 µM) | 6.25 (≈ 15.8 µM) |  | 1.56 (≈ 3.96 µM) | 3.13 (≈ 7.94 µM) | 6.25 (≈ 15.8 µM) | ≤ 0.05 |  |  |  | 0.39 (≈ 0.989 µM) | 0.39 (≈ 0.989 µM) | 3.13 (≈ 7.94 µM) | MIC (Ps. aeruginosa S-68; S68, 20 h): 3.13 µg/mL (≈ 7.94 µM); MIC (Pro. vulgaris GN76**; GN76, 20 h): 3.13 µg/mL (≈ 7.94 µM); MIC (Ps. aeruginosa GN918**; GN918, 20 h): 3.13 µg/mL (≈ 7.94 µM) |
| O=C(O)c1cn(-c2ccc(O)cc2)c(-c2ccc3occc3c2)cc1=O | 0.39 (≈ 1.12 µM) | 0.2 (≈ 0.576 µM) | 0.78 (≈ 2.25 µM) | 1.56 (≈ 4.49 µM) | 0.39 (≈ 1.12 µM) |  | 0.78 (≈ 2.25 µM) | ≤ 0.05 | 12.5 (≈ 36 µM) | 6.25 (≈ 18 µM) |  | 3.13 (≈ 9.01 µM) | 6.25 (≈ 18 µM) | ≤ 0.05 | 0.78 (≈ 2.25 µM) |  | 0.78 (≈ 2.25 µM) | 0.2 (≈ 0.576 µM) | 0.39 (≈ 1.12 µM) | 3.13 (≈ 9.01 µM) | MIC (Ps. aeruginosa GN918**; GN918, 20 h): 1.56 µg/mL (≈ 4.49 µM) |
